In patent publication US8673866B2, “Stabilized formulation for oral administration of therapeutic agents and related methods” (The University of British Columbia, priority 2009, dated 2014):
Values joined by “and” are separate entries in the source; they are usually repeats but may differ in a detail not shown here. Equal values may be shown once.

Tests used:
Leishmania = conditions: visceral leishmaniasis, IV administration; cited from earlier work
[1] = crystalline; cited from earlier work
[2] = oral; cited from earlier work
Leishmania donovani LV82 = assay: Visceral leishmaniasis-infected murine model (liver LDU, BALB/c mice); format: in vivo
Procedure: (§1) To determine the anti-leishmanial activity of a representative oral AmpB formulation, the following studies were completed. BALB/c mice were intravenously infected with 5×10^7 Leishmania donovani LV82 promastigotes (obtained by culturing amastigotes taken directly from the spleen of an infected hamster) seven days prior to treatment. Following the seven days, mice were either administered five daily doses of miltefosine at 3 mg/kg po, or Formulation A at 2.5, 5, and 10 mg/kg po bid for five consecutive days or 20 mg/kg po qd for five consecutive days. Appropriate vehicle controls were also assessed. Animals were sacrificed 14 days post infection and Leishman-Donovan units (LDU) were assessed in livers of mice post mortem via microscopic enumeration of Giemsa-stained liver smears

[3] = Body and organ weights in the murine VL model; format: in vivo, BALB/c mice
Procedure: as §1

[4] = 3 mg/kg p.o. qd, individual mice

| Structure (SMILES) | cure rate (Leishmania) | solubility in water [1] | bioavailability [2] | LDU mean ± SD (Leishmania donovani LV82; 3 mg/kg p.o. qd, group mean (n=4)) | LDU (Leishmania donovani LV82; [4]) | # of amastigotes per 200 nuclei (Leishmania donovani LV82; 3 mg/kg p.o. qd, liver smears, individual mice) | % Reduction compared to Vehicle control (Average) (Leishmania donovani LV82; 3 mg/kg, p.o. qd) | % Reduction compared to water control (Average) (Leishmania donovani LV82; 3 mg/kg, p.o. qd) | inhibition of liver parasites (Leishmania donovani LV82; five daily doses at 3 mg/kg po) | Body Weight [3, 4] | Mean Body Weight Post-treatment ([3]; 3 mg/kg, p.o. qd) | Mean Body Weight Pre-treatment ([3]; 3 mg/kg, p.o. qd) |
| --- | --- | --- | --- | --- | --- | --- | --- | --- | --- | --- | --- | --- |
| C[C@@H]1[C@H](O)[C@@H](C)/C=C/C=C/C=C/C=C/C=C/C=C/C=C/[C@H](O[C@@H]2O[C@H](C)[C@@H](O)[C@H](N)[C@@H]2O)C[C@@H]2O[C@](O)(C[C@@H](O)C[C@@H](O)[C@H](O)CC[C@@H](O)C[C@@H](O)CC(=O)O[C@H]1C)C[C@H](O)[C@H]2C(=O)O (relative stereo) [amphotericin B, [1R-(1R*,3S*,5R*,6R*,9R*,11R*,15S*,16R*,17R*,18S*,19E,21E,23E,25E, 27E,29E,31E,33R*,35S*,36R*,37S,)]-33-[(3-amino-3,6-dideoxy-β-D-mannopyranosyl)oxy]1,3,5,6,9,11,17,37-octahydroxy-15,16,18-trimethyl-13-oxo-14,39-dioxabicyclo-[33.3.1]nonatriaconta-19,21,23,25,27,29,31-heptaene-36-carboxylic acid] | 97% | insoluble | negligible | – | – | – | – | – | – | – | – | – |
| CCCCCCCCCCCCCCCCOP(=O)([O-])OCC[N+](C)(C)C [Miltefosine, miltefosine] | – | – | – | 1537.604 | 1581.58 and 1431.131 and 1736.921 and 1400.783 | 286 and 283 and 301 and 262 | 51.7% | 49.3% | 47.5±7.0% | 19.8 g (2×) and 18.8 g and 18.5 g | 19.2 g | 19.3 g |
